Results taken from the supplement of paper PMC10307832.

Tests used:
Test in all cases: relative viability (nuclei count vs DMSO), 5 days (fraction); higher = more cells survive
BAY61-3606 + Crizotinib = compound: COC1=C(C=C(C=C1)C2=CC3=NC=CN3C(=N2)NC4=C(C=CC=N4)C(=O)N)OC [BAY61-3606] + C[C@@H](Oc1cc(-c2cnn(C3CCNCC3)c2)cnc1N)c1c(Cl)ccc(F)c1Cl [Crizotinib] (partner 1 µM)
In short: (§1)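 Relative viability is defined as nuclei in treated wells over nuclei in vehicle wells. Duplicate plates were run and medians reported. Lung cancer cell lines in 1536-well plates were dosed by pin tool one day after seeding, with one drug or with a fixed anchor-drug dose plus five library-drug doses (not always all listed) in √10 steps, and nuclei were counted after 5 days.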

Doxorubicin + OSI-027 = compound: COc1cccc2c1C(=O)c1c(O)c3c(c(O)c1C2=O)C[C@@](O)(C(=O)CO)C[C@@H]3O[C@H]1C[C@H](N)[C@H](O)[C@H](C)O1 [Doxorubicin] + COc1cccc2cc(-c3nc([C@H]4CC[C@H](C(=O)O)CC4)n4ncnc(N)c34)[nH]c12 [OSI-027] (partner 0.5 µM)
In short: as §1

BAY61-3606 + Luminespib = compound: COC1=C(C=C(C=C1)C2=CC3=NC=CN3C(=N2)NC4=C(C=CC=N4)C(=O)N)OC [BAY61-3606] + CCNC(=O)c1noc(-c2cc(C(C)C)c(O)cc2O)c1-c1ccc(CN2CCOCC2)cc1 [Luminespib] (partner 0.01 µM)
In short: as §1

BAY61-3606 + Pemetrexed = compound: COC1=C(C=C(C=C1)C2=CC3=NC=CN3C(=N2)NC4=C(C=CC=N4)C(=O)N)OC [BAY61-3606] + Nc1nc2[nH]cc(CCc3ccc(C(=O)N[C@@H](CCC(=O)O)C(=O)O)cc3)c2c(=O)[nH]1 [Pemetrexed] (partner 0.2 µM)
In short: as §1

Cell Line	relative viability (BAY61-3606 + Crizotinib; first compound 0.02 µM)	relative viability (BAY61-3606 + Crizotinib; first compound 0.06325 µM)	relative viability (BAY61-3606 + Crizotinib; first compound 0.2 µM)	relative viability (BAY61-3606 + Crizotinib; first compound 0.6325 µM)	relative viability (BAY61-3606 + Crizotinib; first compound 2 µM)	relative viability (Doxorubicin + OSI-027; first compound 0.001 µM)	relative viability (Doxorubicin + OSI-027; first compound 0.003162 µM)	relative viability (Doxorubicin + OSI-027; first compound 0.01 µM)	relative viability (Doxorubicin + OSI-027; first compound 0.03162 µM)	relative viability (Doxorubicin + OSI-027; first compound 0.1 µM)	relative viability (BAY61-3606 + Luminespib; first compound 0.02 µM)	relative viability (BAY61-3606 + Luminespib; first compound 0.06325 µM)	relative viability (BAY61-3606 + Luminespib; first compound 0.2 µM)	relative viability (BAY61-3606 + Luminespib; first compound 0.6325 µM)	relative viability (BAY61-3606 + Luminespib; first compound 2 µM)	relative viability (BAY61-3606 + Pemetrexed; first compound 0.02 µM)	relative viability (BAY61-3606 + Pemetrexed; first compound 0.06325 µM)	relative viability (BAY61-3606 + Pemetrexed; first compound 0.2 µM)	relative viability (BAY61-3606 + Pemetrexed; first compound 0.6325 µM)	relative viability (BAY61-3606 + Pemetrexed; first compound 2 µM)
NCI-H727	0.855	0.706	0.992	0.925	0.738	0.483	0.713	0.531	0.631	0.556	0.334	0.364	0.266	0.328	0.331					
A-427	0.85	0.767	0.878	0.97	0.845	0.427	0.506	0.429	0.43	0.442	0.842	0.928	0.86	0.965	0.808	1.05	1.02	0.992	0.892	0.908
EMC-BAC-2	0.775	0.696	0.755	0.817	0.573	0.5	0.353	0.379	0.239	0.197	1.21	1.15	1.17	1.25	0.904	0.464	0.438	0.449	0.438	0.523
NCI-H647	1.09	1.1	0.963	1.03	0.506	0.695	0.805	0.771	0.498	0.215	0.205	0.16	0.21	0.221	0.0962	0.146	0.156	0.184	0.145	0.131
LCLC-97TM1	0.262		0.341	0.395	0.262	0.516	0.684	0.558	0.573	0.529	0.793	0.875	0.879	0.794	0.765	0.188	0.165	0.195	0.145	0.166
HOP-62	0.928		0.823	1.06	0.716	0.832	0.759	0.798	0.719	0.767	0.919	1.07	0.83	0.933	0.651		0.354	0.323	0.332	0.249
NCI-H1437	0.973	0.961	0.854	0.984	0.797	0.828	0.916	0.842	0.698	0.351	1.14	1.15	1	1.19	1.04	0.333	0.342	0.33	0.31	0.346
NCI-H1755	0.787	0.786	0.839	0.982	0.721	0.631	0.711	0.747	0.721	0.704	0.367	0.495	0.397	0.433	0.384	0.488	0.4	0.411	0.419	0.562
HARA	1.08	1.08	1.06	1.07	0.892	0.454	0.543	0.569	0.509	0.473	0.672	0.462	0.681	0.682	0.352	0.25	0.253	0.236	0.221	0.238
HCC-15	0.835	0.834	0.806	0.836	0.779		0.677	0.635	0.284	0.136	0.412	0.302	0.303	0.263	0.377	0.235	0.216	0.233	0.213	0.204
LOU-NH91	0.72	0.722	0.77	0.777	0.662	0.569	0.748	0.803	0.681	0.69	0.375	0.294	0.396	0.379	0.317	0.402	0.385	0.413	0.38	0.413
NCI-H23	0.53	0.283	0.505	0.486	0.264		0.664	0.694	0.537	0.506	0.212	0.213	0.214	0.232	0.207	0.64	0.689	0.547	0.708	0.429
NCI-H1666	1.13		0.782	0.968	0.969	0.778	0.736	0.547	0.45	0.486	1.12	0.998	1.13	1.08	1.05	0.84	0.911	0.81	0.973	0.909
NCI-H358	0.505	0.342	0.373	0.294	0.162	0.853	0.642	0.417	0.121	0.0934	0.428	0.249	0.322	0.289	0.205	0.196	0.184	0.226	0.163	0.153
NCI-H2085	0.858	0.882	0.87	0.863	0.702	0.786	0.784	0.667	0.679	0.589	0.416	0.469	0.486	0.443	0.412	0.984	0.946	0.861	1.08	0.898
LCLC-103H	1.07	0.997	1.02	1.08	1.02	0.482	0.436	0.516	0.405	0.454	0.989	1.06	0.969	1.06	0.737	0.437	0.441	0.457	0.462	0.446
NCI-H1734	0.635	0.53	0.601	0.674	0.272	0.799	0.6	0.594	0.395	0.432	0.26	0.179	0.188	0.278	0.167	0.401	0.409	0.383	0.358	0.354
NCI-H1563	0.906	0.868	0.882	0.948	0.758	0.813	0.788	0.684	0.589	0.5	0.528	0.558	0.531	0.54	0.502	0.894	0.745	0.669	0.84	0.712

Cell Line	relative viability (BAY61-3606 + Crizotinib; first compound 0.02 µM)	relative viability (BAY61-3606 + Crizotinib; first compound 0.06325 µM)	relative viability (BAY61-3606 + Crizotinib; first compound 0.2 µM)	relative viability (BAY61-3606 + Crizotinib; first compound 0.6325 µM)	relative viability (BAY61-3606 + Crizotinib; first compound 2 µM)	relative viability (Doxorubicin + OSI-027; first compound 0.001 µM)	relative viability (Doxorubicin + OSI-027; first compound 0.003162 µM)	relative viability (Doxorubicin + OSI-027; first compound 0.01 µM)	relative viability (Doxorubicin + OSI-027; first compound 0.03162 µM)	relative viability (Doxorubicin + OSI-027; first compound 0.1 µM)	relative viability (BAY61-3606 + Luminespib; first compound 0.02 µM)	relative viability (BAY61-3606 + Luminespib; first compound 0.06325 µM)	relative viability (BAY61-3606 + Luminespib; first compound 0.2 µM)	relative viability (BAY61-3606 + Luminespib; first compound 0.6325 µM)	relative viability (BAY61-3606 + Luminespib; first compound 2 µM)	relative viability (BAY61-3606 + Pemetrexed; first compound 0.02 µM)	relative viability (BAY61-3606 + Pemetrexed; first compound 0.06325 µM)	relative viability (BAY61-3606 + Pemetrexed; first compound 0.2 µM)	relative viability (BAY61-3606 + Pemetrexed; first compound 0.6325 µM)	relative viability (BAY61-3606 + Pemetrexed; first compound 2 µM)
NCI-H441	0.668	0.788	0.833	0.771	0.414		0.524	0.445	0.261	0.279	0.258	0.31	0.369	0.335	0.302	0.263	0.236	0.271	0.238	0.242
Calu-6	0.765	0.77	0.67	0.732	0.352															
NCI-H1793							0.334	0.253	0.265	0.292	0.177	0.159		0.163	0.182	0.983	0.88	0.896	1.13	1.08
EBC-1	0.2	0.195	0.23	0.16	0.224															
NCI-H1623						0.388	0.41	0.462	0.434	0.423	0.604	0.439	0.422	0.607	0.52					
NCI-H1648						0.291	0.276	0.261	0.259	0.266						0.803	0.622	0.79		0.874
NCI-H522						0.568	0.72	0.792	0.756	0.709	1.05	1.13	1.16	1.12	0.89	1.15	0.966	1.04	0.907	0.817
IA-LM	1.04	0.865		0.987	0.67															
HCC-366	0.506	0.495	0.566	0.461	0.162		1.01	0.934	0.85	0.423						0.187	0.174	0.181	0.164	0.165
NCI-H1395						0.633	0.714	0.685	0.603	0.559	0.849	0.595	0.733	0.568	0.546	1.04	0.659	0.72	0.899	0.73
NCI-H2342						0.628	0.563	0.597	0.59	0.609	0.895	0.719	0.711	0.751	0.797	0.748	0.774	0.716	0.825	0.811
NCI-H1299	0.98	0.961	1.01	0.992	0.93															
A549	0.758	0.756	0.712	0.713	0.406															
SW 900						0.373	0.708	0.571	0.401	0.226	0.172	0.188	0.179	0.219	0.162	0.473			0.465	0.358
ABC-1	0.999	0.978	0.992	1.02	0.821	0.431	0.494	0.424	0.306	0.32	0.985	0.549	0.529	0.81	0.338					
NCI-H1703	0.76	0.449	0.661	0.353	0.343															
HCC-78	0.385	0.308	0.317	0.343	0.367	0.433	0.384	0.329	0.354	0.318						0.864	0.951	0.868	0.889	0.825
